The text below walks through data of PubChem BioAssay AID1259407 (Chemical Carcinogenesis Research Information System (CCRIS), 2018).

Active and inactive are the calls of the source. No rule for the calls is given here.

For this data set, the system named is CCRIS mutagenicity, Ames/micronucleus/aberration tests. The experiment in a line: CCRIS mutagenicity studies.
Where [1] appears, read: Test System: AMES SALMONELLA TYPHIMURIUM, Strain/Indicator: TA98, Metabolic Activation: NONE, Method: STANDARD PLATE.
The mark [2] stands for this setting: Test System: MOUSE LYMPHOMA, Strain/Indicator: L5178Y (TK+/TK-), Metabolic Activation: NONE, Method: SUSPENSION/PLATE.

Turning to `O=C([O-])c1cc(N=Nc2ccc(-c3ccc(N/N=c4/c(=O)cc/c(=N\Nc5cc(S(=O)(=O)[O-])ccc5[O-])c4=O)cc3)cc2)ccc1[O-].[Cu+2].[Na+].[Na+]`, the mutagenic call is, setting by setting: (End Point: IN VITRO CHROMOSOMAL ABERRATIONS, Test System: CHINESE HAMSTER OVARY CELLS, Metabolic Activation: NONE) “inactive; negative”; (End Point: IN VITRO CHROMOSOMAL ABERRATIONS, Test System: CHINESE HAMSTER OVARY CELLS, Metabolic Activation: RAT, LIVER, S-9, AROCLOR 1254) “inactive; negative”; (Test System: AMES SALMONELLA TYPHIMURIUM, Strain/Indicator: TA98, Metabolic Activation: HAMSTER, LIVER, S-9, Method: PREINCUBATION (PRIVAL METHOD)) “active; positive”; under setting [1], “inactive; negative”; (Test System: AMES SALMONELLA TYPHIMURIUM, Strain/Indicator: TA98, Metabolic Activation: RAT, LIVER, S-9, AROCLOR 1254, Method: STANDARD PLATE) “inactive; negative”; (Test System: AMES SALMONELLA TYPHIMURIUM, Strain/Indicator: TA100, Metabolic Activation: NONE, Method: STANDARD PLATE) “inactive; negative”. Also, the mutagenic call runs as follows: (Test System: AMES SALMONELLA TYPHIMURIUM, Strain/Indicator: TA100, Metabolic Activation: RAT, LIVER, S-9, AROCLOR 1254, Method: STANDARD PLATE) “inactive; negative”; (Test System: AMES SALMONELLA TYPHIMURIUM, Strain/Indicator: TA1535, Metabolic Activation: NONE, Method: STANDARD PLATE) “inactive; negative”; (Test System: AMES SALMONELLA TYPHIMURIUM, Strain/Indicator: TA1535, Metabolic Activation: RAT, LIVER, S-9, AROCLOR 1254, Method: STANDARD PLATE) “inactive; negative”; (Test System: AMES SALMONELLA TYPHIMURIUM, Strain/Indicator: TA1537, Metabolic Activation: NONE, Method: STANDARD PLATE) “inactive; negative”; (Test System: AMES SALMONELLA TYPHIMURIUM, Strain/Indicator: TA1537, Metabolic Activation: RAT, LIVER, S-9, AROCLOR 1254, Method: STANDARD PLATE) “inactive; negative”; (Test System: AMES SALMONELLA TYPHIMURIUM, Strain/Indicator: TA1538, Metabolic Activation: NONE, Method: STANDARD PLATE) “inactive; negative”. The mutagenic call (Test System: AMES SALMONELLA TYPHIMURIUM, Strain/Indicator: TA1538, Metabolic Activation: RAT, LIVER, S-9, AROCLOR 1254, Method: STANDARD PLATE) was “inactive; negative”.
As to `CC(C)N(CC(O)c1ccc(NS(C)(=O)=O)cc1)N=O` (stereo not drawn), the mutagenic call was “active; positive” (Test System: UDS HUMAN HEPATOCYTES, Strain/Indicator: THY INCORP, Metabolic Activation: NONE, Method: AUTORADIOGRAPHY) and “active; positive” (Test System: UDS RAT HEPATOCYTES, Strain/Indicator: THY INCORP, Metabolic Activation: NONE, Method: AUTORADIOGRAPHY).
Turning to `O=C1Cc2cc3ccc([N+](=O)[O-])cc3cc2[C@H](O)[C@H]1O`, the mutagenic call under setting [1] was “inactive; negative”.
As to `COC(=O)CCCN(N=O)C(N)=O`, the mutagenic call is, setting by setting: (Test System: E. COLI B, Strain/Indicator: H/R30R, Metabolic Activation: NONE) “active; positive”; (Test System: E. COLI B, Strain/Indicator: HS30R, Metabolic Activation: NONE) “active; positive”.
On to `Cc1cc(C)c(N=Nc2c(O)c(S(=O)(=O)O)cc3cc(S(=O)(=O)O)ccc23)cc1C`, for which the mutagenic call was “active; positive” (Test System: AMES SALMONELLA TYPHIMURIUM, Strain/Indicator: TA100, Metabolic Activation: HAMSTER, LIVER, S-9, Method: PREINCUBATION (PRIVAL METHOD)); “active; positive. reevaluation of results: equivocal” under setting [2]; “active; positive. reevaluation of results: equivocal” (Test System: MOUSE LYMPHOMA, Strain/Indicator: L5178Y (TK+/TK-), Metabolic Activation: RAT, LIVER, S-9, AROCLOR 1254, Method: SUSPENSION/PLATE).
As to `CC(=O)CC(C)C`, the mutagenic call (Test System: AMES SALMONELLA TYPHIMURIUM, Strain/Indicator: TA97, Metabolic Activation: HAMSTER, LIVER, S-9, AROCLOR 1254 (10 OR 30%), Method: PREINCUBATION) was “inactive; negative”; the mutagenic call (Test System: AMES SALMONELLA TYPHIMURIUM, Strain/Indicator: TA97, Metabolic Activation: NONE, Method: PREINCUBATION) is “inactive; negative”; the mutagenic call (Test System: AMES SALMONELLA TYPHIMURIUM, Strain/Indicator: TA97, Metabolic Activation: RAT, LIVER, S-9, AROCLOR 1254 (10 OR 30%), Method: PREINCUBATION) is “inactive; negative”; the mutagenic call (Test System: AMES SALMONELLA TYPHIMURIUM, Strain/Indicator: TA98, Metabolic Activation: HAMSTER, LIVER, S-9, AROCLOR 1254 (10%), Method: PREINCUBATION) was “inactive; negative”; the mutagenic call (Test System: AMES SALMONELLA TYPHIMURIUM, Strain/Indicator: TA98, Metabolic Activation: HAMSTER, LIVER, S-9, AROCLOR 1254 (30%), Method: PREINCUBATION) is “inactive; negative”; the mutagenic call (Test System: AMES SALMONELLA TYPHIMURIUM, Strain/Indicator: TA98, Metabolic Activation: NONE, Method: PREINCUBATION) is “inactive; negative”. Moreover, the mutagenic call is, setting by setting: (Test System: AMES SALMONELLA TYPHIMURIUM, Strain/Indicator: TA98, Metabolic Activation: RAT, LIVER, S-9, AROCLOR 1254 (10%), Method: PREINCUBATION) “inactive; negative”; (Test System: AMES SALMONELLA TYPHIMURIUM, Strain/Indicator: TA98, Metabolic Activation: RAT, LIVER, S-9, AROCLOR 1254 (30%), Method: PREINCUBATION) “inactive; negative”; (Test System: AMES SALMONELLA TYPHIMURIUM, Strain/Indicator: TA98, Metabolic Activation: RAT, LIVER, S-9, AROCLOR 1254, Method: PREINCUBATION) “inactive; negative”; (Test System: AMES SALMONELLA TYPHIMURIUM, Strain/Indicator: TA100, Metabolic Activation: HAMSTER, LIVER, S-9, AROCLOR 1254 (10%), Method: PREINCUBATION) “inactive; negative”; (Test System: AMES SALMONELLA TYPHIMURIUM, Strain/Indicator: TA100, Metabolic Activation: HAMSTER, LIVER, S-9, AROCLOR 1254 (30%), Method: PREINCUBATION) “inactive; negative”; (Test System: AMES SALMONELLA TYPHIMURIUM, Strain/Indicator: TA100, Metabolic Activation: NONE, Method: PREINCUBATION) “inactive; negative”. Also, the mutagenic call (Test System: AMES SALMONELLA TYPHIMURIUM, Strain/Indicator: TA100, Metabolic Activation: RAT, LIVER, S-9, AROCLOR 1254 (10%), Method: PREINCUBATION) is “inactive; negative”; the mutagenic call (Test System: AMES SALMONELLA TYPHIMURIUM, Strain/Indicator: TA100, Metabolic Activation: RAT, LIVER, S-9, AROCLOR 1254 (30%), Method: PREINCUBATION) is “inactive; negative”; the mutagenic call (Test System: AMES SALMONELLA TYPHIMURIUM, Strain/Indicator: TA100, Metabolic Activation: RAT, LIVER, S-9, AROCLOR 1254, Method: PREINCUBATION) is “inactive; negative”; the mutagenic call (Test System: AMES SALMONELLA TYPHIMURIUM, Strain/Indicator: TA1535, Metabolic Activation: HAMSTER, LIVER, S-9, AROCLOR 1254 (10%), Method: PREINCUBATION) was “inactive; negative”; the mutagenic call (Test System: AMES SALMONELLA TYPHIMURIUM, Strain/Indicator: TA1535, Metabolic Activation: HAMSTER, LIVER, S-9, AROCLOR 1254 (30%), Method: PREINCUBATION) is “inactive; negative”; the mutagenic call (Test System: AMES SALMONELLA TYPHIMURIUM, Strain/Indicator: TA1535, Metabolic Activation: NONE, Method: PREINCUBATION) is “inactive; negative”. Besides, the mutagenic call is “inactive; negative” (Test System: AMES SALMONELLA TYPHIMURIUM, Strain/Indicator: TA1535, Metabolic Activation: RAT, LIVER, S-9, AROCLOR 1254 (10%), Method: PREINCUBATION); “inactive; negative” (Test System: AMES SALMONELLA TYPHIMURIUM, Strain/Indicator: TA1535, Metabolic Activation: RAT, LIVER, S-9, AROCLOR 1254 (30%), Method: PREINCUBATION); “inactive; negative” (Test System: AMES SALMONELLA TYPHIMURIUM, Strain/Indicator: TA1535, Metabolic Activation: RAT, LIVER, S-9, AROCLOR 1254, Method: PREINCUBATION); “inactive; negative” (Test System: AMES SALMONELLA TYPHIMURIUM, Strain/Indicator: TA1537, Metabolic Activation: NONE, Method: PREINCUBATION); “inactive; negative” (Test System: AMES SALMONELLA TYPHIMURIUM, Strain/Indicator: TA1537, Metabolic Activation: RAT, LIVER, S-9, AROCLOR 1254, Method: PREINCUBATION); “inactive; negative” (Test System: AMES SALMONELLA TYPHIMURIUM, Strain/Indicator: TA1538, Metabolic Activation: NONE, Method: PREINCUBATION). For the same compound, the mutagenic call reads like this: (Test System: AMES SALMONELLA TYPHIMURIUM, Strain/Indicator: TA1538, Metabolic Activation: RAT, LIVER, S-9, AROCLOR 1254, Method: PREINCUBATION) “inactive; negative”; under setting [2], “active; positive”; (Test System: MOUSE LYMPHOMA, Strain/Indicator: L5178Y (TK+/TK-), Metabolic Activation: RAT, LIVER, S-9, AROCLOR 1242 AND AROCLOR 1254 (2:1), Method: SUSPENSION/PLATE) “inactive; negative”.
